Results taken from paper PMC9033141, “Beta and Gamma Amino Acid-Substituted Benzenesulfonamides as Inhibitors of Human Carbonic Anhydrases” (Pharmaceuticals, 2022).
Where two headings read alike, the source gives them in different places.

How the values were obtained:
CAI [1] = target: T1, CAI (Homo sapiens, UniProt P00915); conditions: FTSA, pH 7.0, 37 °C; taken from previous publication; read-out: Observed Dissociation Constant (Kd_obs), CAI; cited from earlier work;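 for Intrinsic Gibbs energy change (ΔGint), CAI: human CAI expressed in E. coli, ANS fluorescence thermal shift with Kd fitted from melting temperature versus ligand concentration, intrinsic values correct for deprotonated sulfonamide and Zn-water CA fractions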
T1 construct: made in house; host or cells: E. coli
T1 sequence (P00915 whole entry): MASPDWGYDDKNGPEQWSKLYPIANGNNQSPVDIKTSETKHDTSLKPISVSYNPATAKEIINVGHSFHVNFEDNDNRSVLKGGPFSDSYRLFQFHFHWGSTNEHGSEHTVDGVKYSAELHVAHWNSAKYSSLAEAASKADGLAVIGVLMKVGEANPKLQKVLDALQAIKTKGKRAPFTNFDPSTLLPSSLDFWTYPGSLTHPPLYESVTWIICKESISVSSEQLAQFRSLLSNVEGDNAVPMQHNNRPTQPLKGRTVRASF

CAXII [2] = target: T2, CAXII (Homo sapiens, UniProt O43570); conditions: FTSA, pH 7.0, 37 °C; taken from previous publication; read-out: Observed Dissociation Constant (Kd_obs), CAXII; cited from earlier work;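 for Intrinsic Gibbs energy change (ΔGint), CAXII: recombinant CAXII made in E. coli, ANS-fluorescence thermal shift with affinity fitted from Tm versus ligand concentration, intrinsic energy from Kd_obs corrected for deprotonated sulfonamide and Zn-water fractions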
T2 construct: made in house; host or cells: E. coli
T2 sequence (O43570 25-354): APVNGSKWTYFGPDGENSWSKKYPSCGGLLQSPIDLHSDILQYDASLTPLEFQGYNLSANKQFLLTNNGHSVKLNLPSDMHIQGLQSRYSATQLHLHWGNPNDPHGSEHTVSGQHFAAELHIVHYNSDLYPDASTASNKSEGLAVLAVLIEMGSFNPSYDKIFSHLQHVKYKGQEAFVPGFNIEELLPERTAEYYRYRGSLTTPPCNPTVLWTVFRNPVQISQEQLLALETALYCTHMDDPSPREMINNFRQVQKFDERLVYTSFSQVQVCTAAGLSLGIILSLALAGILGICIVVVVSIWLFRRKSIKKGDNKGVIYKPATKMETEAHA

CAII [3] = target: T3, CAII (Homo sapiens, UniProt P00918); conditions: FTSA, pH 7.0, 37 °C; taken from previous publication; read-out: Observed Dissociation Constant (Kd_obs), CAII; cited from earlier work;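 for Intrinsic Gibbs energy change (ΔGint), CAII: recombinant human CAII, thermal shift with ANS dye fluorescence, Kd_obs from fitting melting temperature versus ligand concentration, intrinsic values corrected for deprotonated sulfonamide and Zn-bound water fractions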
T3 construct: made in house; host or cells: E. coli

CAIX [4] = target: T4, CAIX (Homo sapiens, UniProt Q16790); conditions: FTSA, pH 7.0, 37 °C; taken from previous publication; read-out: Observed Dissociation Constant (Kd_obs), CAIX; cited from earlier work
T4 construct: made in house

CAIV = target: T5, CAIV (Homo sapiens, UniProt P22748); assay: Fluorescent thermal shift assay (FTSA), CAIV; type: binding; conditions: for Intrinsic Gibbs energy change (ΔGint), CAIV: 37 °C, calculated (Equation 5); for Kd: FTSA, pH 7.0, 37 °C, read-out: Observed Dissociation Constant (Kd_obs), CAIV;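 for all read-outs here: recombinant human enzyme, thermal denaturation followed by ANS fluorescence, melting temperature versus ligand concentration fitted for Kd_obs, intrinsic value corrected for deprotonated sulfonamide and Zn-bound water fractions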
T5 construct: made in house; host or cells: E. coli
T5 sequence (P22748 19-312): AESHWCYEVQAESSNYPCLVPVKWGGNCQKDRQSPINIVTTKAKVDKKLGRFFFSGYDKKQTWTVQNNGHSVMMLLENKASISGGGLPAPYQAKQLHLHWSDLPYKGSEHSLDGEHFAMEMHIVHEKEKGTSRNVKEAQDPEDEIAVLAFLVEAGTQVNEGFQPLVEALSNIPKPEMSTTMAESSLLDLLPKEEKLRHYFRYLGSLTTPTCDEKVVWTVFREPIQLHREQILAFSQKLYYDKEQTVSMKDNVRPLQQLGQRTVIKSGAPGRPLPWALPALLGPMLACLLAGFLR
Description: (§1) Human CA isozymes were expressed in E. coli (CAI, II, III, IV, VA, VB, VII, XII, XIII, XIV) or mammalian cells (CAVI and CAIX), chromatographically purified following the published protocols [47], and stored at −80 °C. The protein concentration was determined by UV absorption at 280 nm using Beer–Lambert law.
(§2) The QIAGEN Rotor-Gene Q was used to carry out the experiments, with a blue channel used for excitation (365 nm) and detection (460 nm). FTSA in this case relies on an extrinsic probe, 8-anilino-1-naphthalenesulfonate (ANS), to detect the fluorescence increase during protein denaturation, from which protein melting temperature (Tm) can be determined. […] The observed affinity of ligands for CAs was determined by plotting the Tm as a function of ligand concentration and then fitting a curve as described previously [48]. […] Samples were heated from 25 °C to 99 °C at the speed of 1 °C/min.
(§3) The intrinsic thermodynamic parameters were calculated as described in [40]. The intrinsic reaction of inhibitor binding to CA is shown in Equation (1). […] It is known that CA proteins bind sulfonamides only when water molecules are coordinated to the Zn(II) ion, and sulfonamides only bind to CA proteins when their amino group is deprotonated (confirmed by neutron crystallography [53, 54, 55]):(1) CA Zn^II−H2O+RSO2NH^−⇄ CA Zn^II−NH SO2R+H2O
(§4) When calculating Kd_int values, these protein and ligand fractions from Equation (1) have to be accounted for (Equations (2) and (3)). The intrinsic dissociation constant is calculated by multiplying Kd_obs value by the corresponding fractions of protein and ligand (Equation (4)). (2) fRSO2NH^−=10^pH−pKa_RSO2NH2/1+10^pH−pKa_RSO2NH2 (3) fCAZnH2O=1−10^pH−pKa_CAZnH2O/1+10^pH−pKa_CAZnH2O (4) Kd_int=Kd_obs×fRSO2NH^−×fCAZnH2O (5) ΔGint0=RTlnKd_int
(§5) The intrinsic standard Gibbs energy changes upon binding were calculated using Equation (5). Here, R—universal ideal gas constant (8.3144 J/mol·K), T—absolute temperature (310.15 K).

CAXIII [5] = target: T6, CAXIII (Homo sapiens, UniProt Q8N1Q1); assay: biochemical; conditions: Observed Dissociation Constant (Kd_obs), FTSA, pH 7.0, 37 °C;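 note: recombinant human CAXIII melting temperature tracked by ANS fluorescence in thermal shift assay, Tm fitted against ligand concentration, intrinsic value corrects Kd for deprotonated sulfonamide and Zn-bound water fractions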
T6 sequence (Q8N1Q1 whole entry): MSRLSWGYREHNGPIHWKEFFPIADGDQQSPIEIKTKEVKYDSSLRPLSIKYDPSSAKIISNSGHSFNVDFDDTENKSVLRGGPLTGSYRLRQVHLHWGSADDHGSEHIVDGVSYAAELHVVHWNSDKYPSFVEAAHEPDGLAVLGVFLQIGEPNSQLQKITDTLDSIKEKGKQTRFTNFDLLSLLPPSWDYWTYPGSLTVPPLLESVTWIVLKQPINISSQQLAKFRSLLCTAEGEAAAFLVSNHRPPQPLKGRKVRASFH
Description: as §1, §2
(§6) The intrinsic thermodynamic parameters were calculated as described in [40]. The intrinsic reaction of inhibitor binding to CA is shown in Equation (1).
as §4, §5

CAVA = target: T7, CAVA (Homo sapiens, UniProt P35218); assay: Fluorescent thermal shift assay (FTSA), CAVA; type: binding; conditions: for Kd: FTSA, pH 7.0, 37 °C, read-out: Observed Dissociation Constant (Kd_obs), CAVA
T7 construct: made in house; host or cells: E. coli
T7 sequence (P35218 39-305): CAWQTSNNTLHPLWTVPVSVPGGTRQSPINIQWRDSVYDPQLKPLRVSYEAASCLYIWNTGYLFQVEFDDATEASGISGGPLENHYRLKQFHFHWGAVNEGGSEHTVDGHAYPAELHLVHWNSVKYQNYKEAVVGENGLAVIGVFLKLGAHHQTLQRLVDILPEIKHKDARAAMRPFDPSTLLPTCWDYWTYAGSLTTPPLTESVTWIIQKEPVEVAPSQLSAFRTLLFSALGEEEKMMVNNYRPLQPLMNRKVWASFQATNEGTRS
Description: as §1, §2, §3, §4, §5

CAII [6] = target: T3, CAII; assay: biochemical; type: binding; conditions: for Intrinsic Gibbs energy change (ΔGint), CAII: 37 °C, calculated (Equation 5); for Kd: FTSA, pH 7.0, 37 °C, read-out: Observed Dissociation Constant (Kd_obs), CAII
CAVB [7] = target: T8, CAVB (Homo sapiens, UniProt Q9Y2D0); assay: Fluorescent thermal shift assay (FTSA), CAVB; type: binding; conditions: for Intrinsic Gibbs energy change (ΔGint), CAVB: 37 °C, calculated (Equation 5); for Kd: FTSA, pH 7.0, 37 °C, read-out: Observed Dissociation Constant (Kd_obs), CAVB
T8 construct: made in house; host or cells: E. coli
T8 sequence (Q9Y2D0 34-317): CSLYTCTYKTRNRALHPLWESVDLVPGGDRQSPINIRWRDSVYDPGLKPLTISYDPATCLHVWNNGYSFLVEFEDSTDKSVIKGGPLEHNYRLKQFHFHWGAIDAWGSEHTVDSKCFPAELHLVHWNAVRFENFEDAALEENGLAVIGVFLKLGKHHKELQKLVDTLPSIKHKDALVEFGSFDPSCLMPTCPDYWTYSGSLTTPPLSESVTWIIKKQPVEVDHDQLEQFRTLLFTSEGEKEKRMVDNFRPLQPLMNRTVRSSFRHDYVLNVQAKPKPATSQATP
Description: as §1, §2, §3, §4, §5

CAXIV = target: T9, CAXIV (Homo sapiens, UniProt Q9ULX7); assay: Fluorescent thermal shift assay (FTSA), CAXIV; type: binding; conditions: for Intrinsic Gibbs energy change (ΔGint), CAXIV: 37 °C, calculated (Equation 5); for Kd: FTSA, pH 7.0, 37 °C, read-out: Observed Dissociation Constant (Kd_obs), CAXIV;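 for all read-outs here: recombinant human CA XIV from E. coli, ANS-based thermal shift: Kd_obs fitted from melting temperature versus ligand concentration, ΔGint from Kd_obs corrected for deprotonated sulfonamide and Zn-water fractions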
T9 construct: made in house; host or cells: E. coli
T9 sequence (Q9ULX7 16-337): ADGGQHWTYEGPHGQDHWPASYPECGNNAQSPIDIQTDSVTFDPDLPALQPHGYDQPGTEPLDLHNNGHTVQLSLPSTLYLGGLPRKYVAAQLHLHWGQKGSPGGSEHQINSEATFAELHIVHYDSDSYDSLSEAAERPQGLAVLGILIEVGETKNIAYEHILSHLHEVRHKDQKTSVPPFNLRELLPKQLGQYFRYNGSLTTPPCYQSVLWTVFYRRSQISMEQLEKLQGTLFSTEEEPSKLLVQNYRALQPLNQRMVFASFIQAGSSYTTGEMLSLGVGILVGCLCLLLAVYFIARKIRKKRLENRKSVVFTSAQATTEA
Description: as §1, §2, §3, §4, §5

CAI [8] = target: T1, CAI; assay: biochemical; type: binding; conditions: for Intrinsic Gibbs energy change (ΔGint), CAI: 37 °C, calculated (Equation 5); for Kd: FTSA, pH 7.0, 37 °C, read-out: Observed Dissociation Constant (Kd_obs), CAI
CAVII = target: T10, CAVII (Homo sapiens, UniProt P43166); assay: Fluorescent thermal shift assay (FTSA), CAVII; type: binding; conditions: for Intrinsic Gibbs energy change (ΔGint), CAVII: 37 °C, calculated (Equation 5); for Kd: FTSA, pH 7.0, 37 °C, read-out: Observed Dissociation Constant (Kd_obs), CAVII
T10 construct: made in house; host or cells: E. coli
T10 sequence (P43166 whole entry): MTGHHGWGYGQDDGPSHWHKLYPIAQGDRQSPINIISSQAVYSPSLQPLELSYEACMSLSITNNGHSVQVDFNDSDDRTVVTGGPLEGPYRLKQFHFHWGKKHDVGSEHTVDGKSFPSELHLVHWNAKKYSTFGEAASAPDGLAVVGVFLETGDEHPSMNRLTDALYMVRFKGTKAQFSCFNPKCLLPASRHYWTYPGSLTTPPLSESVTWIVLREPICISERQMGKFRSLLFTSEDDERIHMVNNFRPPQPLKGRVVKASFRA
Description: as §1, §2, §3, §4, §5

CAVI = target: T11, CAVI (Homo sapiens, UniProt P23280); assay: Fluorescent thermal shift assay (FTSA), CAVI; type: binding; conditions: for Intrinsic Gibbs energy change (ΔGint), CAVI: 37 °C, calculated (Equation 5); for Kd: FTSA, pH 7.0, 37 °C, read-out: Observed Dissociation Constant (Kd_obs), CAVI;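 for all read-outs here: human CAVI expressed in mammalian cells, ANS fluorescence tracked during thermal unfolding, melting temperature fitted against ligand concentration, intrinsic values corrected for deprotonated sulfonamide and Zn-bound water fractions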
T11 construct: made in house
T11 sequence (P23280 21-290 limits assumed): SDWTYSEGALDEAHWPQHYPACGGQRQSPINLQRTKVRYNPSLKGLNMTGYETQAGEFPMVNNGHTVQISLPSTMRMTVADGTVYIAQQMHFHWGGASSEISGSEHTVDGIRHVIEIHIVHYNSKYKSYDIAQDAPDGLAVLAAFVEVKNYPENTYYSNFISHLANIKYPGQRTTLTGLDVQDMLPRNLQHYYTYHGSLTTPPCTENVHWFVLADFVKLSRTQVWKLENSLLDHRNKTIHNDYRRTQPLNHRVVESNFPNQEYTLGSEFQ
Description: as §1, §2, §3, §4, §5

CAIII = target: T12, CAIII (Homo sapiens, UniProt P07451); assay: Fluorescent thermal shift assay (FTSA), CAIII; type: binding; conditions: for Intrinsic Gibbs energy change (ΔGint), CAIII: 37 °C, calculated (Equation 5); for Kd: FTSA, pH 7.0, 37 °C, read-out: Observed Dissociation Constant (Kd_obs), CAIII
T12 construct: made in house; host or cells: E. coli
T12 sequence (P07451 whole entry): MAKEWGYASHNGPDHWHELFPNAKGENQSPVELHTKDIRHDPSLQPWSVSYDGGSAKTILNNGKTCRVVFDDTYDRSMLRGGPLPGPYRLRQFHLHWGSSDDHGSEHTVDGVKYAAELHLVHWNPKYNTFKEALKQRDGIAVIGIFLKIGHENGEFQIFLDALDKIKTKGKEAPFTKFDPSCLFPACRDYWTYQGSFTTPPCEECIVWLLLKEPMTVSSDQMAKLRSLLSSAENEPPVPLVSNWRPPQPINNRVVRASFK
Description: as §1, §2, §3, §4, §5

[9] = Determination of compound sulfonamide group pKa (UV-Vis spectra at different pH); type: physicochemical
Description: To calculate the intrinsic thermodynamic parameters of compound binding to CA isozymes, the pKa values of the sulfonamide group and the water molecule bound to the Zn(II) ion at the active site of CA proteins had to be determined. The pKa values for CA isozyme-bound water molecules were taken from, CAI—8.1; CAII—6.9; CAIII—6.5; CAIV—6.6; CAVA—6.7; CAVB—7.0; CAVI—6.0; CAVII—6.8; CAIX—6.6; CAXII—6.8; CAXIII—8.0; CAXIV—6.1. […] The pKa values were calculated as described previously in [28, 52] by normalizing the absorbance, plotting it as a function of pH, then fitting to the Henderson–Hasselbalch equation using the least square method (Figure S105).
Since the pKa values were only able to be measured for compound group 26–36, due to universal buffer pH limitations, intrinsic thermodynamic parameters were not calculated for compounds 2(a,b)–25(a,b), only for compounds 26–36 using experimentally obtained pKa values when possible and using the average pKa value mentioned above for compounds not measured.

CAXIII [10] = target: T6, CAXIII; conditions: 37 °C; calculated (Equation 5)
Description: as §1, §2, §6, §4, §5

CAIX [11] = target: T4, CAIX; assay: biochemical; type: binding; conditions: for Intrinsic Gibbs energy change (ΔGint), CAIX: 37 °C, calculated (Equation 5); for Kd: FTSA, pH 7.0, 37 °C, read-out: Observed Dissociation Constant (Kd_obs), CAIX
Description: as §1, §2, §6, §4, §5

CAXII [12] = target: T2, CAXII; assay: biochemical; type: binding; conditions: for Intrinsic Gibbs energy change (ΔGint), CAXII: 37 °C, calculated (Equation 5); for Kd: FTSA, pH 7.0, 37 °C, read-out: Observed Dissociation Constant (Kd_obs), CAXII
CAVB [13] = target: T8, CAVB; assay: Isothermal titration calorimetry (ITC), CAVB; type: binding; conditions: pH 7.0, 37 °C
[14] = universal buffer, spectrophotometric, 37 °C, read-out: Sulfonamide pKa

| Compound | Intrinsic Gibbs energy change (ΔGint), CAIV (CAIV) [kcal/mol] | Kd (CAIV) [µM] | Kd (CAXIII [5]) [µM] | Kd (CAVA) [µM] | Intrinsic Gibbs energy change (ΔGint), CAII (CAII [6]) [kcal/mol] | Kd (CAII [6]) [µM] | Intrinsic Gibbs energy change (ΔGint), CAVB (CAVB [7]) [kcal/mol] | Kd (CAVB [7]) [µM] | Intrinsic Gibbs energy change (ΔGint), CAXIV (CAXIV) [kcal/mol] | Intrinsic Gibbs energy change (ΔGint), CAI (CAI [8]) [kcal/mol] | Kd (CAI [8]) [µM] | Intrinsic Gibbs energy change (ΔGint), CAVII (CAVII) [kcal/mol] | Kd (CAVII) [µM] | Intrinsic Gibbs energy change (ΔGint), CAVI (CAVI) [kcal/mol] | Kd (CAVI) [µM] | Kd (CAIII) [µM] | Intrinsic Gibbs energy change (ΔGint), CAXIII (CAXIII [10]) [kcal/mol] | Intrinsic Gibbs energy change (ΔGint), CAIX (CAIX [11]) [kcal/mol] | Kd (CAIX [11]) [µM] | Intrinsic Gibbs energy change (ΔGint), CAXII (CAXII [12]) [kcal/mol] | other results |
| --- | --- | --- | --- | --- | --- | --- | --- | --- | --- | --- | --- | --- | --- | --- | --- | --- | --- | --- | --- | --- | --- |
| Cc1cc(C)n(C(=O)C2CC(=O)N(c3ccc(S(N)(=O)=O)cc3)C2)n1 (centres unmarked) [Compound 21] | – | – | – | – | – | – | – | – | – | – | – | – | – | – | – | – | – | – | – | – | Kd (CAI [1]): 0.25 µM; Kd (CAXII [2]): 1.4 µM; Kd (CAII [3]): 0.066 µM; Kd (CAIX [4]): 0.22 µM |
| NC(=S)N(CCC(=O)O)c1ccc(S(N)(=O)=O)cc1 [Compound 26] | – | – | – | – | – | – | – | – | – | – | – | – | – | – | – | – | – | – | – | – | Kd (CAI [1]): 10 µM; Kd (CAXII [2]): 33 µM; Kd (CAII [3]): 5 µM; Kd (CAIX [4]): 10 µM |
| Cc1csc(N(CCC(=O)O)c2ccc(S(N)(=O)=O)cc2)n1 [Compound 27, 3-((4-Methylthiazol-2-yl)(4-sulfamoylphenyl)amino)propanoic acid] | -13.9 | 1.4 | 0.87 | ≥ 200 | -14.7 | 0.22 | -14.1 | 0.56 | -15.8 | -15 | 0.067 | -14.7 | 0.25 | -13 | 18 | 63 | -13.5 | -16 | 0.048 | -15 | melting point: 162 to 163 °C; Kd (CAXIV): 0.17 µM; Intrinsic Gibbs energy change (ΔGint), CAIII (CAIII): -11.6 kcal/mol; pKa [9, 14]: 10.4; Kd (CAXII [12]): 0.18 µM |
| Cc1csc(N(CCC(=O)NN)c2ccc(S(N)(=O)=O)cc2)n1 [Compound 29, 4-((3-Hydrazineyl-3-oxopropyl)(4-methylthiazol-2-yl)amino)benzenesulfonamide] | -13.7 | 1.5 | 1.7 | ≥ 200 | -14.3 | 0.38 | -15.2 | 0.077 | -15.8 | -14.4 | 0.15 | -14 | 0.67 | -12.8 | 20 | ≥ 200 | -12.9 | -15.5 | 0.08 | -13.9 | melting point: 167 to 168 °C; Kd (CAXIV): 0.13 µM; pKa [9, 14]: 10.3; Kd (CAXII [12]): 0.83 µM |
| CCOC(=O)c1sc(N(CCC(=O)OC)c2ccc(S(N)(=O)=O)cc2)nc1C [Compound 32, Ethyl 2-((3-Methoxy-3-oxopropyl)(4-sulfamoylphenyl)amino)-4-methylthiazole-5-carboxylate] | -12.7 | 2 | 0.33 | ≥ 200 | -14.6 | 0.053 | -14.9 | 0.03 | -13.8 | -12.5 | 0.83 | -14.2 | 0.13 | -12.4 | 10 | ≥ 200 | -13.1 | -14.1 | 0.19 | -11.7 | melting point: 140 to 141 °C; Kd (CAXIV): 0.77 µM; pKa [9, 14]: 9.7; ΔHobs, CAVB (CAVB [13]; 50 mM sodium phosphate buffer, 100 mM NaCl): -9.6 kcal/mol; Kd (CAVB [13]; read-out: Observed Dissociation Constant (Kd_obs), CAVB, ITC data in brackets): 0.041 µM; Kd (CAXII [12]): 7.7 µM |
| CCOC(=O)c1sc(N(CCC(=O)NN)c2ccc(S(N)(=O)=O)cc2)nc1C [Compound 33] | -13 | 2.8 | 0.83 | ≥ 200 | -13.8 | 0.5 | -14.7 | 0.1 | -14.3 | -12.2 | 3.1 | -13.4 | 1.1 | -12.4 | 25 | ≥ 200 | -13.1 | -14 | 0.63 | -11.5 | melting point: 206 to 207 °C; Kd (CAXIV): 0.91 µM; pKa ([9]; value marked *: average of measured compounds, used for calculation, read-out: Sulfonamide pKa (not determined, average of all measured compounds)): 10.1; Kd (CAXII [12]): 26 µM |
| NS(=O)(=O)c1ccc(N(CCC(=O)O)c2nc(-c3ccc(Cl)cc3)c(Cl)s2)cc1 [Compound 36, 3-((5-Chloro-4-(4-chlorophenyl)thiazol-2-yl)(4-sulfamoylphenyl)amino)propanoic acid] | -13.1 | 3.3 | 0.023 to 0.04 | ≥ 200 | -15.5 | 0.023 to 0.04 | -14 | 0.4 | -15.6 | -15.5 | 0.02 | -15.7 | 0.033 | -13.4 | 6.3 | 17 | -15.1 | -16.1 | 0.023 | -14.9 | Intrinsic Gibbs energy change (ΔGint), CAVA (CAVA; 37 °C, calculated (Equation 5)): ≤ -10.4 kcal/mol; Intrinsic Gibbs energy change (ΔGint), CAIII (CAIII): -12.2 kcal/mol; pKa [9, 14]: 10.2; Kd (CAXII [12]): 0.12 µM |
